Experimental data reported in US12213959B2, “Use of 3-O-sulfamoyloxy-7β-methyl-d-homo-6-oxaestra-1,3,5(10),8(9)-tetraen-17a-one to treat breast cancer” (priority 2018, dated 2025).
“And” between values parts separate entries of the source, which are not always exact repeats. Identical values can stand only once. Marks after values point to notes of the source that are not given here.

What was measured:
[1] = tested on: MDA-MB-231 cell line of triple negative breast cancer; experiment: Cell growth inhibition on MDA-MB-231; type: cell-based; settings: Homo sapiens
uterine body = experiment: Hormonal effects on the uterine body (uterine weight); type: in vivo, mice; settings: for Uterine weight: end of observation
Description: The hormonal effects of the medicament on the uterine body was analyzed by comparing the uterine weight without uterine horns at the end of the observation period (Table 13).

[2] = Body weight and tolerability during the antitumour study
Description: The study medicament was administered i.g. using a metal atraumatic gavage (with the procedure corresponds to the oral route of administration in clinical settings). […] Ex tempore solutions of the medicament for administration were prepared in olive oil (refined olive oil supplemented with unrefined extra virgin olive oil available under Global Village “Clasico” trademark, lot L:183351116, expiry date 26.04.2020, BAIEO, Spain). The administered volume was 0.1 ml per 10 g of a mouse body weight (0.2 ml of a ready-to-use formulation for a mouse of 20 g). The medicament administration was started 24 hours after the randomization. Duration of the administration course was 27-28 days.
This dose corresponds to a human daily dose of 20 mg/kg.
The evaluation criteria included the clinical observation data, animals body weights, time of death (if applicable), tumor growth over time, pathomorphological examination data (verification of a neoplasm during autopsy, assessment of toxic effects by macroscopic presentation of changes in the internal organs).
The animals body weights were recorded before the first administration of the medicaments and then twice per week using a verified high-speed electronic laboratory balance Ohaus Scout Pro (USA) with a maximum load of 2000 g and a measurement pitch of 0.1 g.

[3] = tested on: breast tumours in FBV/N female mice, transgenic for HER-2/neu; experiment: Antitumour activity on breast tumours of HER-2/neu transgenic mice; type: in vivo; settings: for antitumour activity compared with Tamoxifen: FVB mice transgenic for HER-2/neu with breast tumours
Description: The study was carried out on female FVB mice transgenic for HER-2/neu of the conventional category, the strain being obtained from the mouse bank Charles River Laboratories (Italy).
Duration of the administration course was 27-28 days.
The control groups were given the olive oil (placebo).
The macroscopically detectable tumor nodes were measured in the animals once per week during the weighing process.

[4] = medicament 2 mg/kg daily i.g., Day 0
[5] = medicament 2 mg/kg daily i.g., Day 7
[6] = medicament 2 mg/kg daily i.g., Day 14
[7] = medicament 2 mg/kg daily i.g., Day 21
[8] = medicament 2 mg/kg daily i.g., Day 28
[9] = medicament 2 mg/kg, end of observation
[10] = medicament 20 mg/kg daily i.g., Day 0
[11] = medicament 20 mg/kg daily i.g., Day 7

For `C[C@H]1Oc2cc(OS(N)(=O)=O)ccc2C2=C1[C@@H]1CCCC(=O)[C@@]1(C)CC2` [medicament, 3-O-sulfamoyloxy-7β-methyl-O-homo-6-oxaestra-1,3,5(10),8(9)-tetraen], the IC50 [1] was 4.8 µM, the “uterine weight differences as compared to the control group” value (uterine body; dose range from 2.0 to 100 mg/kg) was “No statistically significant differences” and the Uterine weight (uterine body; medicament 2 mg/kg, All mice) was 37 ± 6 MI. It also gave a Uterine weight (uterine body; medicament 2 mg/kg, estrous cycle phase D) of 24 ± 7 MI, a Uterine weight (uterine body; medicament 2 mg/kg, estrous cycle phase E) of 53 ± 3 MI and a Uterine weight (uterine body; medicament 20 mg/kg, All mice) of 50 ± 4 MI. It also gave a Uterine weight (uterine body; medicament 20 mg/kg, estrous cycle phase D) of 45 ± 13 MI, a Uterine weight (uterine body; medicament 20 mg/kg, estrous cycle phase E) of 53 ± 4 MI and a Uterine weight (uterine body; medicament 100 mg/kg, All mice) of 52 ± 5 MI. For the same compound, the Uterine weight (uterine body; medicament 100 mg/kg, estrous cycle phase D) was 34 ± 13 MI, the Uterine weight (uterine body; medicament 100 mg/kg, estrous cycle phase E) was 56 ± 5 MI and the uterotropic activity (uterine body; mouse, in vivo) was “no uterotropic activity”. For the same compound, the “signs of toxic damage to the internal organs at autopsy” value ([2]; end of the experiment) was “no specific signs of toxic damage to the internal organs”, the “clinical signs of toxicity” value ([2]; mouse, in vivo) was “no clinical signs of toxicity being observed” and the “antitumour activity compared with Tamoxifen” value [3] was “not lower than that of the reference durg, Tamoxifen”. For the same compound, the “antitumour activity compared with Tamoxifen” value ([3]; listed as agent) was “more effectively than clinically used Tamoxifen”, the “antitumour effect on the model” value ([3]; dose range 2.0, 20.0 and 100.0 mg/kg) was “no pronounced antitumour effect” and the “Average volume of new tumours at the end of the observation period” value ([3]; medicament 2 mg/kg) was 0.33 cm^3. The “effect on frequency of stabilisations or volume of newly developing tumours” value ([3]; medicament 2.0 mg/kg) was “had no effect”, the “relative change in the total volume of tumours versus control values” ([3]; medicament 2.0 mg/kg) was “greater than the control values” and the “Average volume of tumors existing at the beginning of the experiment (M)” value (“Average volume of tumors existing” for short) [3, 4] was 0.27 cm^3. The “Relative change of the average total volume of tumours to that of Day −1 (M)” value (“Relative change … (M)” below) [3, 4] was 0%, the “Average total volume of tumours in mice (M)” value ([3]; medicament 2.0 mg/kg daily i.g., Day 0) was 1.24 cm^3 and the “Average volume of tumors existing” value [3, 5] was 0.42 cm^3. For the same compound, the “Relative change … (M)” value [3, 5] was 59%, the “Average total volume of tumours in mice (M)” value ([3]; medicament 2.0 mg/kg daily i.g., Day 7) was 1.91 cm^3 and the “Average volume of tumors existing” value [3, 6] was 0.6 cm^3. The “Relative change … (M)” value [3, 6] was 131%, the “Average total volume of tumours in mice (M)” value ([3]; medicament 2.0 mg/kg daily i.g., Day 14) was 2.71 cm^3 and the “Average volume of tumors existing” value [3, 7] was 0.77 cm^3. For the same compound, the “Relative change … (M)” value [3, 7] was 210%, the “Average total volume of tumours in mice (M)” value ([3]; medicament 2.0 mg/kg daily i.g., Day 21) was 3.50* cm^3 and the “Average volume of tumors existing” value [3, 8] was 1.11 cm^3. The “Relative change … (M)” value [3, 8] was 347*** %, the “Average total volume of tumours in mice (M)” value ([3]; medicament 2.0 mg/kg daily i.g., Day 28) was 5.04 cm^3 and the “Average tumor volume, % of change to the initial value” ([3]; medicament 2 mg/kg daily i.g., Day 28 vs Day 0) was 311%. For the same compound, the “Average total tumour volume, % of change to the initial value” ([3]; medicament 2.0 mg/kg daily i.g., Day 28 vs Day 0) was 307%, the “Absolute number of new tumours” value [3, 9] was 30 and the “frequency of stabilisations of tumours present at initiation of treatment” value [3, 9] was 5%. The “TGI (average tumor volume)” value ([3]; medicament 2 mg/kg, vs Control-3, Day 0) was 29%, the “TGI (average total tumour volume)” value ([3]; medicament 2.0 mg/kg, vs Control-3, Day 0) was 45% and the “TGI (average tumor volume)” value ([3]; medicament 2 mg/kg, vs Control-3, Day 7) was 16%. The “TGI (average total tumour volume)” value ([3]; medicament 2.0 mg/kg, vs Control-3, Day 7) was 37%, the “TGI (average tumor volume)” value ([3]; medicament 2 mg/kg, vs Control-3, Day 14) was 14% and the “TGI (average total tumour volume)” value ([3]; medicament 2.0 mg/kg, vs Control-3, Day 14) was 35%. For the same compound, the “TGI (average tumor volume)” value ([3]; medicament 2 mg/kg, vs Control-3, Day 21) was 9%, the “TGI (average total tumour volume)” value ([3]; medicament 2.0 mg/kg, vs Control-3, Day 21) was 31% and the “TGI (average tumor volume)” value ([3]; medicament 2 mg/kg, vs Control-3, Day 28) was −14%. For the same compound, the “TGI (average total tumour volume)” value ([3]; medicament 2.0 mg/kg, vs Control-3, Day 28) was 13%, the “Average volume of new tumours at the end of the observation period” value ([3]; medicament 20 mg/kg) was 0.19±0.04 cm^3 and 0.19 cm^3 and the “Average total volume of tumours in mice (M)” value [3, 10] was 0.41 cm^3. For the same compound, the “Average volume of tumors existing” value [3, 10] was 0.18 cm^3, the “Relative change … (M)” value ([3]; medicament 20.0 mg/kg daily i.g., Day 0) was 0% and the “Average total volume of tumours in mice (M)” value [3, 11] was 0.62 cm^3. For the same compound, the “Average volume of tumors existing” value [3, 11] was 0.28 cm^3 and the “Relative change … (M)” value ([3]; medicament 20.0 mg/kg daily i.g., Day 7) was 55%.
